Experimental data published in patent EP1375483A1, “6-CHLORO-3-PYRIDYLMETHYLPROPYLAMINE DERIVATIVES, PREPARATION PROCESS THEREOF AND BACTERICIDES” (KUREHA KAGAKU KOGYO KABUSHIKI KAISHA, priority 2001, dated 2001).
Where two headings read alike, the source gives them in different places.

Experiments:
[1] = system: Botrytis cinerea; experiment: Antifungal activity test against various pathogenic fungi, hypha extension on PDA plates (Test Example 3); assay type: cell-based; settings: for inhibition at 1.6 ppm: read-out: Growth Inhibition B.c (1.6)
[2] = system: cucumber powdery mildew; experiment: Test of control effect on cucumber powdery mildew (Test Example 2); assay type: in vivo; settings: wettable powder 100 mg/l, 100 liters/10 a, sprinkled on cucumbers (Sagamihanpakufushinari) before inoculation, examined 9th to 14th day after inoculation; for pest or weed control at 100 µg/mL: Cucumis sativus
Description: The wettable powders formulated by using each of the compounds I-1 to 27 according to the present invention and the comparative compounds (a) to (d), (m-1) and (m-3) were each diluted and suspended with water to a predetermined concentration (100 mg/l), the suspension was sprinkled over the first to the second leaf period cucumbers (variety: "[…]") cultivated by using a square plastic pot (size: 6. 4 cm x 6. 4 cm) in a rate of 100 liters/10 a (ares). After the sprinkled leaves were air-dried, the spores were inoculated over the leaves by sprinkling the same with a brush from an infected leaf, a disease was contracted in a glass house (temperature: 20 to 24°C, relative humidity: 20 to 70 RH). On the 9th to 14th day after the inoculation, the infection degree was examined according to the following scale and the control value of each compound was calculated by the following calculation equation 2: [table] (Equation 2) Control value = (1 - infection degree of treated zone/infection degree of untreated zone) x 100 (%) [formula] The control values of each compound are shown in Table 9.

[3] = system: wheat powdery mildew; experiment: Test of control effect on wheat powdery mildew (Test Example 1); assay type: in vivo; settings: wettable powder 125 mg/l, 100 liters/10 a, sprinkled on wheat seedlings (Nourin 64) before inoculation, examined 9th to 14th day after inoculation; for pest or weed control at 125 µg/mL: Triticum aestivum
Description: Wettable powders were prepared from compounds of the present invention I-1 to I-27 and comparative compounds (a) to (d) , (m-1) and (m-3). The obtained wettable powder was diluted and suspended with water to provide the predetermined concentration (125 mg/l), and was sprinkled onto seedlings of wheat (variety: "Nourin 64") at the first to the second leaf period which were cultivated using square plastic pots (size: 6.4 cm x 6.4 cm) in a rate of 100 liters/10 a (ares). After drying the sprinkled leaves with air, a suspension of wheat powdery mildew spores taken from infected leaves was inoculated by spraying onto the sprinkled leaves. They were supervised in a green house (temperature: 20 to 24°C, relative humidity: 20 to 70 RH). On the 9th to 14th day after the inoculation, the infection degree was examined according to the following scale and the control value of each compound was calculated by the following calculation equation 1. [table] (Equation 1) Control value = (1 - infection degree of treated zone/infection degree of untreated zone) x 100 (%) [formula] The control values of each compound are shown in Table 8.

[4] = system: wheat powdery mildew; experiment: Permeable mobility fungicidal effect test in leaf section of wheat powdery mildew (Test Example 4); assay type: in vivo
Description: In the test example 4, permeable mobility fungicidal effect test was performedon the leaf section of wheat powdery mildew with regard to the compounds I-1 to 27 according to the present invention and the comparative compounds (a) to (d), and (m-1) to (m-3) with the method described later. The compound in the form of a wettable powder obtained by Formulation 2 or the like was diluted and suspended with water to a predetermined concentration (200mg/l), and 0.5 µl of the suspension was applied to a 2 to 3 cm leaf portion from the root of the three leaves of the 4th to 4.5th leaf period wheat (variety: Abukumawase) cultured by using a square plastic pot (size: 6.4 cm x 6.4 cm). After these wheat leaves were subject to still standing in a glass house (temperature: 20 to 24C, relative humidity: 20 to 70 RH) for one day, the spores of wheat powdery mildew were inoculated over the leaves by sprinkling the same with a brush from an infected leaf, a disease was contracted in the same glass house. The length of a non-contracted area generated from the applied portion to the direction of the leaf top was measured, and a relative mobility to the compound (m-2) was calculated with the following calculation […] by using the comparative compound (m-2) as a standard compound. (Equation 4) Relative mobility = (Length of non-contracted area in each chemical section (cm)/Length of non-contracted area of compound (m-2) (cm)) [formula]

[5] = system: Microdochium nivale; experiment: Antifungal activity test against various pathogenic fungi, hypha extension on PDA plates (Test Example 3); assay type: cell-based; settings: read-out: Growth Inhibition M.n (3.2)
[6] = system: Venturia inaequalis; experiment: as above; assay type: cell-based; settings: read-out: Growth Inhibition V.i (3.2)
[7] = system: Rhynchosporium secalis; experiment: as above; assay type: cell-based; settings: read-out: Growth Inhibition R.s (100)
[8] = system: Pyrenophora graminea; experiment: as above; assay type: cell-based; settings: read-out: Growth Inhibition P.g (12.5)
[9] = system: Leptosphaeria nodorum; experiment: as above; assay type: cell-based; settings: Parastagonospora nodorum, read-out: Growth Inhibition L.n (0.8)
[10] = system: Pyricularia oryzae; experiment: microbe, parasite or virus in culture; assay type: cell-based; settings: read-out: Growth Inhibition P.o (12.5)
[11] = system: Septoria tritici; experiment: Antifungal activity test against various pathogenic fungi, hypha extension on PDA plates (Test Example 3); assay type: cell-based; settings: Zymoseptoria tritici, read-out: Growth Inhibition S.t (100)
[12] = system: Pseudocercosporella herpotrichoides; experiment: as above; assay type: cell-based; settings: Oculimacula yallundae, read-out: Growth Inhibition P.h (25)
[13] = 1.6 ppm in PDA culture medium, cultured 1 to 7 days
[14] = length of non-contracted area relative to compound (m-2), 0.5 µl of 200 mg/l suspension applied to wheat leaf (Abukumawase), inoculated after one day
[15] = 3.2 ppm in PDA culture medium, cultured 1 to 7 days
[16] = 100 ppm in PDA culture medium, cultured 1 to 7 days
[17] = 12.5 ppm in PDA culture medium, cultured 1 to 7 days
[18] = Leptosphaeria nodorum, 0.8 ppm in PDA culture medium, cultured 1 to 7 days
[19] = Septoria tritici, 100 ppm in PDA culture medium, cultured 1 to 7 days

CC(Cc1cccc(C(F)(F)F)c1)CN(C)Cc1ccc(Cl)nc1 (centres unmarked) [(a), 6-chloro-N-methyl-[2-methyl-3-(3-trifluoromethylphenyl)propyl]-3-pyridylmethylamine]
inhibition at 1.6 ppm [1, 13]: 20 to 40% | pest or weed control at 100 µg/mL [2]: 50% | pest or weed control at 125 µg/mL [3]: 70% | Relative Mobility [4, 14]: 1

CC(Cc1cccc(OC(F)(F)F)c1)CN(C)Cc1ccc(Cl)nc1 (centres unmarked) [(b), 6-chloro-N-methyl-[2-methyl-3-(3-trifluoromethoxyphenyl)propyl]-3-pyridylmethylamine]
inhibition at 1.6 ppm [1, 13]: 40 to 70% | pest or weed control at 100 µg/mL [2]: 60% | pest or weed control at 125 µg/mL [3]: 80% | Relative Mobility [4, 14]: 3

CC(Cc1cccc(Cl)c1Cl)CN(C)Cc1ccc(Cl)nc1 (centres unmarked) [(c-1), 6-chloro-N-[3-(2,3-dichlorophenyl)-2-methylpropyl]-N-me thyl-3-pyridylmethylamine]
inhibition at 1.6 ppm [1, 13]: 20 to 40% | pest or weed control at 100 µg/mL [2]: 0% | pest or weed control at 125 µg/mL [3]: 40% | Relative Mobility [4, 14]: 1

CC(Cc1ccccc1Cl)CN(C)Cc1ccc(Cl)nc1 (centres unmarked) [(c-2), 6-chloro-N-[3-(2-chlorophenyl)-2-methylpropyl]-N-methyl-3-pyridylmethylamine, reference compound]
inhibition at 1.6 ppm [1, 13]: 20 to 40% | pest or weed control at 100 µg/mL [2]: 0% | inhibition at 3.2 ppm [5, 15]: 20 to 40% | inhibition at 3.2 ppm [6, 15]: 20 to 40% | pest or weed control at 125 µg/mL [3]: 40% | inhibition at 100 ppm [7, 16]: 20 to 40% | inhibition at 12.5 ppm [8, 17]: 20 to 40% | inhibition at 0.8 ppm [9, 18]: 40 to 70% | inhibition at 12.5 ppm [10]: 40 to 70% | Relative Mobility [4, 14]: 1

CC(Cc1cccc(Cl)c1)CN(C)Cc1ccc(Cl)nc1 (centres unmarked) [(c-3), 6-chloro-N-[3-(3-chlorophenyl)-2-methylpropyl]-N-methyl-3-pyridylmethylamine]
inhibition at 1.6 ppm [1, 13]: 20 to 40% | pest or weed control at 100 µg/mL [2]: 0% | pest or weed control at 125 µg/mL [3]: 50% | Relative Mobility [4, 14]: 1

CC(Cc1cccc(F)c1)CN(C)Cc1ccc(Cl)nc1 (centres unmarked) [(c-4), 6-chloro-N-[3-(3-fluorophenyl)-2-methylpropyl]-N-methyl-3-pyridylmethylamine, reference compound]
inhibition at 1.6 ppm [1, 13]: < 20% | pest or weed control at 100 µg/mL [2]: 0% | inhibition at 3.2 ppm [5, 15]: 20 to 40% | inhibition at 3.2 ppm [6, 15]: 20 to 40% | pest or weed control at 125 µg/mL [3]: 10% | inhibition at 100 ppm [7, 16]: 20 to 40% | inhibition at 12.5 ppm [8, 17]: 20 to 40% | inhibition at 0.8 ppm [9, 18]: 40 to 70% | inhibition at 12.5 ppm [10]: 40 to 70% | Relative Mobility [4, 14]: 1

CC(Cc1ccc2c(c1)OCO2)CN(C)Cc1ccc(Cl)nc1 (centres unmarked) [(d), 6-chloro-N-[2-methyl-3-(3,4-methylenedioxyphenyl)propyl]-N-methyl-3-pyridylmethylamine]
inhibition at 1.6 ppm [1, 13]: < 20% | pest or weed control at 100 µg/mL [2]: 0% | pest or weed control at 125 µg/mL [3]: 10% | Relative Mobility [4, 14]: 1

Cc1ccc(CC(C)CN(C)Cc2ccc(Cl)nc2)cc1C (centres unmarked) [(m-1), 6-chloro-N-[3-(3,4-dimethylphenyl)-2-methylpropyl]-N-me thyl-3-pyridylmethylamine]
inhibition at 1.6 ppm [1, 13]: 20 to 40% | pest or weed control at 100 µg/mL [2]: 10% | pest or weed control at 125 µg/mL [3]: 10% | Relative Mobility [4, 14]: 1

CC(Cc1ccc(C(C)(C)C)cc1)CN(C)Cc1ccc(Cl)nc1 (centres unmarked) [(m-2), N-[3-(4-t-butylphenyl)-2-methylpropyl]-6-chloro-N-methy 1-3-pyridylmethylamine]
Relative Mobility [4, 14]: 1

COc1cccc(CC(C)CN(C)Cc2ccc(Cl)nc2)c1 (centres unmarked) [(m-3), 6-chloro-N-[3-(3-methoxyphenyl)-2-methylpropyl]-N-methy 1-3-pyridylmethylamine]
Growth Inhibition B.c (1.6) [1, 13]: 1 (Hypha extension inhibition rate of less than 20%) | Control Value [2]: 0% | Control Value [3]: 0% | Relative Mobility [4, 14]: 1

CC(Cc1ccc(C(F)(F)F)c(F)c1)CN(C)Cc1ccc(Cl)nc1 (centres unmarked) [Compound I-9, 6-chloro-N-[3-(3-fluoro-4-trifluoromethylphenyl)-2-methylpropyl]-N-methyl-3-pyridylmethylamine]
inhibition at 1.6 ppm [1, 13]: 70 to 90% | pest or weed control at 100 µg/mL [2]: 100% | pest or weed control at 125 µg/mL [3]: 100% | inhibition at 100 ppm [11, 19]: 70 to 90% | Relative Mobility [4, 14]: 3

CC(Cc1ccc(C(F)(F)F)c(F)c1F)CN(C)Cc1ccc(Cl)nc1 (centres unmarked) [Compound I-10]
inhibition at 1.6 ppm [1]: > 90% | Control Value [2]: 100% | inhibition at 3.2 ppm [5]: 70 to 90% | inhibition at 3.2 ppm [6]: 70 to 90% | Control Value [3]: 100% | inhibition at 100 ppm [11]: 70 to 90% | inhibition at 100 ppm [7]: 70 to 90% | inhibition at 25 ppm [12]: > 90% | inhibition at 12.5 ppm [8]: 70 to 90% | inhibition at 0.8 ppm [9]: 70 to 90% | inhibition at 12.5 ppm [10]: 70 to 90% | Relative Mobility ([4]; 24 h, 200 ug/mL): 3

CC(Cc1ccc(OC(F)(F)F)cc1)CN(C)Cc1ccc(Cl)nc1 (centres unmarked) [Compound I-12, 6-chloro-N-methyl-N-[3-(4-trifluoromethoxyphenyl)-2-methylpropyl]-3-pyridylmethylamine]
inhibition at 1.6 ppm [1, 13]: 70 to 90% | pest or weed control at 100 µg/mL [2]: 100% | inhibition at 3.2 ppm [5, 15]: > 90% | inhibition at 3.2 ppm [6, 15]: 70 to 90% | pest or weed control at 125 µg/mL [3]: 100% | inhibition at 100 ppm [11, 19]: 70 to 90% | inhibition at 100 ppm [7, 16]: > 90% | inhibition at 25 ppm ([12]; Pseudocercosporella herpotrichoides, 25 ppm in PDA culture medium, cultured 1 to 7 days): > 90% | inhibition at 12.5 ppm [8, 17]: 70 to 90% | inhibition at 0.8 ppm [9, 18]: > 90% | inhibition at 12.5 ppm [10]: 70 to 90% | Relative Mobility [4, 14]: 10

CC(Cc1ccc(F)c(OC(F)(F)F)c1)CN(C)Cc1ccc(Cl)nc1 (centres unmarked) [Compound I-16]
inhibition at 1.6 ppm [1]: 70 to 90% | Control Value [2]: 100% | Control Value [3]: 100% | inhibition at 0.8 ppm [9]: > 90% | Relative Mobility ([4]; 24 h, 200 ug/mL): 9
